Reference: patent US12145959B2, “Bile acid recycling inhibitors for treatment of hypercholemia and cholestatic liver disease” (SHIRE HUMAN GENETIC THERAPIES, INC., priority 2011, dated 2024)

Legend:
[1] = system: Male Zucker diabetic fatty rats (ZDF/GmiCrl-fa/fa); assay: ZDF rat study of 264W94: fecal bile acid excretion, fecal NEFA and plasma bile acids; assay type: in vivo; conditions: 2 weeks
Method: Animal preparation. Male Zucker diabetic fatty rats (ZDF/GmiCrl-fa/fa) were purchased from Charles River (Raleigh, NC) and housed under controlled conditions (12:12 light-dark cycle, 24° C. and 50% relative humidity) with free access to rodent food (Purina 5008, Harlan Teklad, Indianapolis, IN). All rats arrived at seven weeks of age (+3 days). After a one-week acclimation period, rats were anesthetized with isoflurane (Abbott Laboratories, IL) and tail-vein blood samples were collected at 9 am without fasting. Blood glucose levels were measured using a glucometer (Bayer, Leverkusen, Germany). In order to ensure balanced treatment groups, ZDF rats were assigned to six treatment groups based upon baseline glucose: vehicle (0.5% HPMC, 0.1% Tween80) and five doses of 264W94 (0.001, 0.01, 0.1, 1, 10 mg/kg). All treatments were given via oral gavage twice a day and animals were followed for two weeks with blood samples collected from tail vein at the end of each week at 9 am without fasting. Fecal samples were collected for 24 hours during the second week of treatment.
Measurement of clinical chemistry parameters. Non-esterified fatty acids (NEFA), bile acids, and bile acids in fecal extraction were measured using the Olympus AU640 clinical chemistry analyzer (Beckman Coulter, Irving, TX).

Male beagle dogs [2] = assay: Duration of action on dog serum bile acids, Method 2: one meal and extended interval between dosing and feeding; assay type: in vivo; conditions: administered 2 hours prior to feeding
Method: (§1) Dosage preparation and administration: LUM001 was dissolved in water at concentrations that required the administration of 0.2 ml/kg of solution. Solutions were placed into gelatin capsules, Torpac Inc., size 13 Batch 594, East Hanover NJ, and administered orally.
(§2) Dogs: Male beagle dogs were obtained from Covance Research Products, Cumberland VA or Marshall Farms USA, Inc., North Rose NY A total of 20 dogs, 1 to 5 years old, 6.8 to 15.6 kg body weight, were used in these experiments. The dogs were conditioned to a 12 hour light/dark cycle and maintained on a feeding restriction of 1 hour per day access to food (Richman Standard Certified Canine Diet #5007, PMI Nutrition, Inc., St Louis MO) from 7 to 8 AM. They were trained to eat a special meal promptly within 20 minutes when presented (1 can. 397 g, Evanger's 100% Beef for Dogs, Evanger's Dog and Cat Food Co., Inc., Wheeling IL, mixed with 50 g of sharp cheddar cheese.).
(§3) Serum Total Bile Acid (SBA) Measurement: SBA was measured by an enzymatic assay. SBA values are expressed as μg of total bile acids/ml of serum.
Method 2: One Meal and Extended Interval Between Dosing and Feeding: Alternatively, 6 dogs were dosed with water or LUM001, at 0.05 mg/kg, p.o. at 1.5 hours prior to being fed, or 0.05, or 0.2 mg/kg, at 2 hours prior to feeding. This moved the elevated SBA plateau out in time from the dose point. […]

healthy adult subjects = assay: Phase 1 ascending multiple oral dose study: serum and fecal bile acid analysis; assay type: in vivo, human; conditions: healthy adults; ascending multiple oral doses qAM, 28 days
Method: FIG. 3. Serum bile acid (SBA) analysis of healthy subjects after administration of ascending multiple oral doses of LUM001 a randomized, double-blind, placebo-controlled study. Shown in the graphs are data from the 0.5 (n=16), 1.0 (n=8), 2.5 (n=8), 5.0 (n=8) and 10 (n=8) mg dosing groups. On Day 1, blood was drawn for baseline SBA at approximately 30 minutes before and after breakfast and 30 minutes after lunch and dinner. Samples were obtained on day 14.
FIG. 4. Fecal bile acid analysis of healthy subjects after administration of ascending multiple oral doses of LUM001 a randomized, double-blind, placebo-controlled study. […]
SBA were analyzed as part of the routine clinical analysis of the serum samples collected at each time point.
Fecal Bile Acid Analysis: Fecal samples were collected for all panels except the dose-titration panel, 2.5 (2) and 5 mg (2), on Days 9 through 14 and 23 through 28 (data shown in FIG. 4). Twenty-four hour FBA excretions were quantified by Pharmacia for Days 9 through 14 and 23 through 28. […] The weight of each 24-hour fecal collection was recorded on the CRFs. […]
An aliquot for each 24-hour fecal sample collected on Days 23 through 28 was combined, homogenized, and analyzed for bile acid species concentrations by ANAPHARM. The fecal bile acid species evaluated include chenodeoxycholic acid, cholic acid, deoxycholic acid, and lithocholic acid.

[3] = system: children and adolescents under the age of eighteen; assay: Human study of fasting and post-prandial peak serum bile acids in children and adolescents; assay type: in vivo
Method: FIG. 5. Fasting serum bile acid levels and morning post-prandial peak in children under the age of 12. LUM001 was administered once-a-day (QD) in the morning for fourteen days.
Human Study to Test Efficacy of ASBTI in Lowering Serum Bile Acids
(§4) LUM001 has been administered to forty patients under the age of 18 years old. […] The drug was administered once-a-day (QD) in the morning for fourteen days. […] These doses are similar to those using to treat patients with cholestatic diseases.
The efficacy of LUM001 was determined by measuring total serum bile acids after eight days of dosing in children and adolescents under the age of eighteen. Thirty minutes before the next drug administration, at approximately 8 am in the morning, serum bile acid levels were measured. The child had refrained from food for 12 hours prior to this sample thus providing a fasted level of serum bile acid. After breakfast, serum bile acids were measured for up to the next 4 hours (8 am to noon) and the peak serum bile acid concentration noted.

[4] = Systemic exposure (pharmacokinetics) of LUM001 in patients under 18, study NB-00-02-014; assay type: in vivo, human; conditions: QD in the morning, measured on day eight
Method: as §4

Male beagle dogs [5] = conditions: previous experiments (2); cited from earlier work
Male beagle dogs [6] = assay: Time to onset of activity of a single oral dose on postprandial total serum bile acids in beagle dogs; assay type: in vivo, dog
Method: Animal Study on the Duration of Action and Time to Onset of ASBTI Activity of a Single Oral Dose of LUM001 on Postprandial Total Serum Bile Acids in Beagle Dogs
Test compound: LUM001—Form I
as §1, §2, §3
To estimate the details of this plateau, 6 dogs were given a test meal and blood samples for SBA measurement were collected at −30, 0, 30, 60, 65, 70, 80, 90, 120, 180, 240, 360, 480, 720, 1410 and 1440 minutes from the time of feeding. Any remaining food was removed 20 min after it was first presented to the dogs. To establish a method for extending the elevated plateau of SBA, 6 dogs were given the meal at 0 hr and an additional ½ size meal again 4 hr after their first meal. Blood samples were taken at 0, 1, 2, 3, 4, 4.5, 6, 7 and 8 hr. The curves for SBA level vs time obtained in these experiments were used as references for determining blood sampling times in experiments with LUM001. […]

Male ZDF rats = assay: Plasma bile acid levels of ZDF rats after ascending doses of SC-435 and LUM002; assay type: in vivo, rat; conditions: ZDF rats n=4; oral gavage twice a day 2 weeks; all doses (SC-435 1, 10, 30 mg/kg; LUM002 0.3, 1, 3, 10, 30 mg/kg); end of second week
Method: (§5) FIG. 2. Plasma bile acid levels of ZDF rats after administration of ascending doses of SC-435 and LUM002. Male ZDF rats (n=4) were administered vehicle, SC-435 (1, 10 or 30 mg/kg) or LUM002 (0.3, 1, 3, 10 or 30 mg/kg) by oral gavage twice a day for 2 weeks. Plasma bile acid levels were determined at the end of the second week. Data are expressed as mean values±SEM.
as §5, with “Plasma” for “FIG. 2. Plasma”, “week. […]” for “week.”

[7] = FIG. 5 legend: children under the age of 12, QD for fourteen days
[8] = LUM001 treated patients under eighteen, after eight days of dosing
[9] = patients under eighteen, after eight days of dosing

CCCC[C@]1(CC)CS(=O)(=O)c2cc(OC)c(OC)cc2[C@@H](c2ccccc2)N1 [Compound 264W94]
Fecal bile acid concentrations elevated, compared to vehicle treated rats ([1]; 0.001-10 mg/kg oral gavage twice a day, 24 h feces in second week, maximum elevation): up to 6.5 fold | Bile acids in the feces ([1]; oral administration twice a day): dose-dependently increased

CCCCC1(CCCC)CS(=O)(=O)c2ccc(N(C)C)cc2[C@@H](c2ccc(OCc3ccc(C[N+]45CCN(CC4)CC5)cc3)cc2)[C@H]1O [LUM001]
Dose required to produce a significant effect on SBA (Male beagle dogs [2]): 0.2 mg/kg | Fecal bile acids (healthy adult subjects): significant increase | Serum bile acids (healthy adult subjects): significant reduction | Decrease in average fasting serum bile acid level versus placebo patients [3, 7]: 24% | Decrease in average post-prandial peak serum bile acid level versus placebo patients [3, 7]: 23% | Average fasting serum bile acid level [3, 8]: 6.5 µmol/L | Average post-prandial peak serum bile acid level [3, 8]: 9.2 µmol/L | Decrease in average fasting serum bile acid level versus placebo patients [3, 9]: 24% | Decrease in average post-prandial peak serum bile acid level versus placebo patients [3, 9]: 23% | Systemic absorption (levels of systemic exposure) [4]: minimally absorbed | Time that the compound remains active (Male beagle dogs [5]): more than 4.5 hours | Effect of increasing the dose on onset time to significant SBA lowering (Male beagle dogs [6]; 1 mg/kg versus 0.2 mg/kg): did not shorten the onset time | ED50 (Male beagle dogs [6]; Canis lupus familiaris, oral, read-out: ED50 dose in the dog SBA model): 0.2 mg/kg | Threshold dose for significant lowering of SBA levels (Male beagle dogs [6]; oral, 1 hour after feeding): 0.05 mg/kg

CCCC[C@]1(CC)CS(=O)(=O)c2ccc(N(C)C)cc2[C@@H](c2cccc(NC(=O)N[C@@H]3O[C@H](COS(=O)(=O)[O-])[C@@H](O)[C@H](OCc4ccccc4)[C@H]3O)c2)[C@H]1O.[K+] [LUM002]
Plasma bile acid levels (Male ZDF rats): decreased

CCCCC1(CCCC)CS(=O)(=O)c2ccc(N(C)C)cc2[C@@H](c2ccc(OCCCC[N+]34CCN(CC3)CC4)cc2)[C@H]1O.CS(=O)(=O)[O-] [SC-435, 1-[4-[4-[(4R,5R)-3,3-dibutyl-7-(dimethylamino)-2,3,4,5-tetrahydro-4-hydroxy-1,1-dioxido-1-benzothiepin-5-yl]phenoxy]butyl]4-aza-1-azoniabicyclo[2.2.2]octane methanesulfonate salt, reference compound]
Plasma bile acid levels (Male ZDF rats): decreased
